# Bridge positions count the residues as written; N and C are the ends. Ends that are not written are not given here.
# Legend:
# [1] = tested on: brain; assay: 125I-peptide/RBC complex homing to brain and kidney, with or without unlabeled peptide; format: in vivo, mouse; conditions: 10 mM unlabeled peptide coadministered
# Method: The synthetic cyclic CLSSRLDAC (SEQ ID NO: 3) peptide (1 mg) was labeled with iodine-125 using the Bolton and Hunter reagent (Amersham; Arlington Heights Ill.). Labeled peptide was purified by reverse phase HPLC on Sep-Pak™ cartridges (Waters, Millipore Corp.; Milford Pa.) and the ^125I-peptide (200 μg) was coupled to 1 ml glutaraldehyde-stabilized sheep RBC (Sigma Chemical Co.; St. Louis Mo.) according to the manufacturer's instructions.
# After 2 min, each mouse was perfused through the heart with 50 ml DMEM and the brain and kidney were removed and assayed for radioactivity.
# Approximately twice as much of the CLSSRLDAC/RBC complex (SEQ ID NO: 3) homed to brain than to kidney. […] Coadministration of unlabeled CVRLNSLAC (SEQ ID NO: 43) had no effect on selective homing of the complex to brain and no effect on the non-specific localization of the complex in the kidney.
# [2] = tested on: brain; assay: Peptide competition of phage homing to brain; format: in vivo, mice; conditions: 100 μg synthetic cyclic peptide injected with 1×10^8 TU phage
# Method: In order to confirm the specificity of a peptide for directing homing to a selected organ, peptide competition experiments were performed. The cyclic peptide, CLSSRLDAC (SEQ ID NO: 3), which is one of the brain homing peptides (see Table 1) was synthesized (Immunodynamics; La Jolla Calif.) and purified by HPLC. The effect on the homing of phage expressing CLSSRLDAC (SEQ ID NO: 3), CENWWGDVC (SEQ ID NO: 2) or […] (SEQ ID NO: 16) to the brain was examined in order to determine whether co-administration of the synthetic peptide affected homing of the phage.
# Phage expressing CLSSRLDAC (SEQ ID NO: 3), CENWWGDVC (SEQ ID NO: 2) or […] (SEQ ID NO: 16) were titrated to the same concentration and 1×10^8 TU was injected into mice alone, or with 100 μg purified synthetic cyclic CLSSRLDAC (SEQ ID NO: 3) peptide. The synthetic CLSSRLDAC (SEQ ID NO: 3) peptide inhibited the homing of phage expressing CLSSRLDAC (SEQ ID NO: 3) by about 60%.
# [3] = tested on: brain; assay: Brain homing activity (test not described); conditions: in vivo
Sequence,effect of coadministration on brain homing of the CLSSRLDAC/RBC complex [1],effect of coadministration on localization of the CLSSRLDAC/RBC complex in the kidney [1],effect on homing to brain of CENWWGDVC phage [2],inhibition of homing to brain of phage expressing CLSSRLDAC [2],brain homing activity [3]
CLSSRLDAC (disulfide 1-9 (inferred)),essentially completely inhibited,no effect,did not affect,about 60%,–
CVRLNSLAC [reference compound],no effect,no effect,–,–,no brain homing activity
